Results on 19 compounds are retold here after PubChem BioAssay AID328 (DTP/NCI, 2004).

Several values for one entry are separate records, joined by “and”; a condition that tells them apart may be missing. Identical values can stand only once. Inconclusive results and toxic doses are left out.

This assay concerns BDF1 mice, P388 leukemia ip, median survival T/C. The experiment in a line: NCI In Vivo Anticancer Drug Screen. Data for tumor model P388 Leukemia (intraperitoneal) in B6D2F1 (BDF1) mice. The settings on record: endpoint: median survival time, higher = longer survival. In outline:
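Transplantable tumour in mice; compound vs vehicle dosing; survival scored; ratio of treated to control reported.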

The mark [1] stands for this setting: dose: 50.0 mg/kg/injection, schedule: Q04DX003 (ip), vehicle: saline with Tween-80.
[2] abbreviates: dose: 100.0 mg/kg/injection, schedule: Q04DX003 (ip), vehicle: saline with Tween-80.
The mark [3] stands for this setting: dose: 200.0 mg/kg/injection, schedule: Q04DX003 (ip), vehicle: saline with Tween-80.
Where [4] appears, read: dose: 100.0 mg/kg/injection, schedule: Q01DX009 (ip), vehicle: Klucel (hydroxypropylcellulose) (HPC).
[5] abbreviates: dose: 200.0 mg/kg/injection, schedule: Q01DX009 (ip), vehicle: Klucel (hydroxypropylcellulose) (HPC).
Setting [6] is: dose: 400.0 mg/kg/injection, schedule: Q01DX009 (ip), vehicle: Klucel (hydroxypropylcellulose) (HPC).
Where [7] appears, read: dose: 100.0 mg/kg/injection, schedule: Q04DX003 (ip), vehicle: saline.
Setting [8] is: dose: 200.0 mg/kg/injection, schedule: Q04DX003 (ip), vehicle: saline sonified.
Setting [9] is: dose: 12.5 mg/kg/injection, schedule: Q01DX009 (ip), vehicle: saline with Tween-80.
[10] abbreviates: dose: 25.0 mg/kg/injection, schedule: Q01DX009 (ip), vehicle: saline with Tween-80.
Setting [11] is: dose: 100.0 mg/kg/injection, schedule: Q01DX009 (ip), vehicle: saline with Tween-80.
[12] abbreviates: dose: 200.0 mg/kg/injection, schedule: Q01DX009 (ip), vehicle: saline with Tween-80.
The mark [13] stands for this setting: dose: 400.0 mg/kg/injection, schedule: Q01DX009 (ip), vehicle: saline with Tween-80.

Regarding `CC(=O)CC(Cl)(C(F)(F)F)C(F)(F)F`, the T/C was 100 % of control under setting [1], 100 % of control under setting [2] and 109 % of control under setting [3].

As to `CC(=O)OC1C(=O)C(C)(C)CSCC1(C)C` (stereo not given), the T/C under setting [4] was 104 % of control, the T/C under setting [5] was 95 % of control and the T/C under setting [6] is 104 % of control.

As to `CC(O)(C(N)=O)c1cc(Cl)ccc1Cl` (stereo not given), the T/C (dose: 100.0 mg/kg/injection, schedule: Q01DX009 (ip), vehicle: water) is 110 % of control; the T/C (dose: 100.0 mg/kg/injection, schedule: Q04DX003 (ip), vehicle: water) was 109 % of control; the T/C (dose: 200.0 mg/kg/injection, schedule: Q01DX009 (ip), vehicle: water) is 110 % of control; the T/C (dose: 200.0 mg/kg/injection, schedule: Q04DX003 (ip), vehicle: water) is 100 % of control; the T/C (dose: 400.0 mg/kg/injection, schedule: Q01DX009 (ip), vehicle: water) was 90 % of control; the T/C (dose: 400.0 mg/kg/injection, schedule: Q04DX003 (ip), vehicle: water) is 95 % of control.

In the case of `CC(C)n1cc2c(N)ncnc2n1`, the T/C is, setting by setting: (dose: 12.5 mg/kg/injection, schedule: Q01DX009 (ip), vehicle: saline) 92 % of control; (dose: 25.0 mg/kg/injection, schedule: Q01DX009 (ip), vehicle: saline) 92 % of control; (dose: 50.0 mg/kg/injection, schedule: Q01DX009 (ip), vehicle: saline) 100 % of control and 120 % of control; (dose: 100.0 mg/kg/injection, schedule: Q01DX009 (ip), vehicle: saline) 100 % of control; under setting [7], 92 % of control; (dose: 200.0 mg/kg/injection, schedule: Q04DX003 (ip), vehicle: saline) 100 % of control.

Consider `CCCCCCCCCCCCCCSCCSCCSCCCCCCCCCCCCCC`, for which the T/C was 86 % of control (dose: 25.0 mg/kg/injection, schedule: Q01DX001 (ip), vehicle: saline sonified) and 86 % of control (dose: 100.0 mg/kg/injection, schedule: Q01DX001 (ip), vehicle: saline sonified).

As to `Clc1c(Cl)c(CBr)c(Cl)c(CBr)c1Cl`, the T/C runs as follows: (dose: 20.0 mg/kg/injection, schedule: Q01DX009 (ip), vehicle: Klucel (hydroxypropylcellulose) (HPC)) 100 % of control; (dose: 40.0 mg/kg/injection, schedule: Q01DX009 (ip), vehicle: Klucel (hydroxypropylcellulose) (HPC)) 95 % of control; (dose: 50.0 mg/kg/injection, schedule: Q01DX009 (ip), vehicle: saline sonified) 113 % of control; (dose: 50.0 mg/kg/injection, schedule: Q04DX003 (ip), vehicle: Klucel (hydroxypropylcellulose) (HPC)) 100 % of control; (dose: 88.0 mg/kg/injection, schedule: Q04DX003 (ip), vehicle: Klucel (hydroxypropylcellulose) (HPC)) 108 % of control; (dose: 100.0 mg/kg/injection, schedule: Q01DX009 (ip), vehicle: saline sonified) 118 % of control. Moreover, the T/C runs as follows: (dose: 100.0 mg/kg/injection, schedule: Q04DX003 (ip), vehicle: Klucel (hydroxypropylcellulose) (HPC)) 110 % of control; (dose: 132.0 mg/kg/injection, schedule: Q04DX003 (ip), vehicle: Klucel (hydroxypropylcellulose) (HPC)) 91 % of control; (dose: 132.0 mg/kg/injection, schedule: Q04DX003 (ip), vehicle: saline sonified) 122 % of control; under setting [8], 150 % of control.

`NC(CSC(c1ccccc1)(c1ccccc1)c1ccc(Br)cc1)C(=O)O` (stereo not given): the T/C (dose: 5.0 mg/kg/injection, schedule: Q04DX003 (ip), vehicle: Klucel (hydroxypropylcellulose) (HPC)) is 118 % of control; the T/C (dose: 6.25 mg/kg/injection, schedule: Q01DX009 (ip), vehicle: saline with Tween-80) is 190 % of control; the T/C under setting [9] was 245 % of control; the T/C under setting [10] was 270 % of control; the T/C (dose: 25.0 mg/kg/injection, schedule: Q04DX003 (ip), vehicle: saline) was 165 % of control; the T/C (dose: 30.0 mg/kg/injection, schedule: Q04DX003 (ip), vehicle: Klucel (hydroxypropylcellulose) (HPC)) was 154 % of control. Moreover, the T/C runs as follows: (dose: 45.0 mg/kg/injection, schedule: Q04DX003 (ip), vehicle: other) 166 % of control; under setting [1], 176 % of control; (dose: 50.0 mg/kg/injection, schedule: Q04DX003 (ip), vehicle: saline) 204 % of control and 210 % of control; (dose: 65.0 mg/kg/injection, schedule: Q04DX003 (ip), vehicle: other) 183 % of control; under setting [11], 100 % of control; (dose: 100.0 mg/kg/injection, schedule: Q04DX003 (ip), vehicle: other) 170 % of control. The T/C reads like this: under setting [2], 185 % of control; under setting [7], 230 % of control; (dose: 150.0 mg/kg/injection, schedule: Q04DX003 (ip), vehicle: other) 250 % of control; under setting [3], 100 % of control.

Consider `COC1(OC)C2(Cl)CC(c3ccc(Cl)cc3)C1(Cl)C(Cl)=C2Cl` (stereo not given), for which the T/C is 100 % of control under setting [1], 95 % of control under setting [2] and 90 % of control under setting [3].

On to `CCOC(=O)c1ccc(NCC#N)cc1`, for which the T/C by setting is: under setting [11], 90 % of control; under setting [12], 100 % of control; under setting [13], 100 % of control.

As to `CCOC(=O)C1CN(c2ccccc2)C(=O)C1=O` (stereo not given), the T/C by setting is: (dose: 50.0 mg/kg/injection, schedule: Q01DX009 (ip), vehicle: Klucel (hydroxypropylcellulose) (HPC)) 112 % of control; under setting [4], 118 % of control; under setting [5], 110 % of control; under setting [6], 110 % of control.

As to `FC(F)(F)C(Cl)(Cc1ccc2ccccc2n1)C(F)(F)F`, the T/C by setting is: (dose: 100.0 mg/kg/injection, schedule: Q01DX001 (ip), vehicle: saline with Tween-80) 100 % of control; (dose: 200.0 mg/kg/injection, schedule: Q01DX001 (ip), vehicle: saline with Tween-80) 100 % of control; (dose: 400.0 mg/kg/injection, schedule: Q01DX001 (ip), vehicle: saline with Tween-80) 104 % of control.

For the compound `N#CCc1ccc2c(c1)[nH]c1ccccc12`, the T/C by setting is: (dose: 50.0 mg/kg/injection, schedule: Q04DX003 (ip), vehicle: saline sonified) 104 % of control; (dose: 100.0 mg/kg/injection, schedule: Q04DX003 (ip), vehicle: saline sonified) 109 % of control; under setting [8], 104 % of control.

For `Oc1ccc(F)c2cccnc12`, the T/C is, setting by setting: (dose: 12.5 mg/kg/injection, schedule: Q01DX010 (ip), vehicle: carboxymethylcellulose (CMC)) 100 % of control; (dose: 25.0 mg/kg/injection, schedule: Q01DX010 (ip), vehicle: carboxymethylcellulose (CMC)) 105 % of control; (dose: 50.0 mg/kg/injection, schedule: Q01DX010 (ip), vehicle: carboxymethylcellulose (CMC)) 100 % of control.

As to `COc1ccccc1C1(O)c2ccccc2Sc2cccc(OC)c21` (stereo not given), the T/C reads like this: under setting [11], 104 % of control; under setting [12], 100 % of control; under setting [13], 95 % of control.

As to `COc1c(C)c2c3c4c1C(=O)C(=CC4=O)NC(=O)/C(C)=C\C=C\C(C)C1OC(C)(C)OC(C1C)C(C)C(OC(C)=O)C(C)C(OC)/C=C/OC(C)(O2)C3=O` (stereo not given), the T/C by setting is: under setting [9], 109 % of control; under setting [10], 113 % of control; (dose: 50.0 mg/kg/injection, schedule: Q01DX009 (ip), vehicle: saline with Tween-80) 105 % of control and 117 % of control.

`CC(=O)Nc1ccc(C=O)cc1[N+](=O)[O-]`: the T/C is 110 % of control under setting [4], 100 % of control under setting [5] and 100 % of control under setting [6].

Regarding `COP(=O)(O)C(Cc1ccccc1)NC(=O)OCc1ccccc1` (stereo not given), the T/C is, setting by setting: (dose: 25.0 mg/kg/injection, schedule: Q01DX005 (ip), vehicle: distilled water + Tween-80) 100 % of control; (dose: 50.0 mg/kg/injection, schedule: Q01DX005 (ip), vehicle: distilled water + Tween-80) 100 % of control; (dose: 100.0 mg/kg/injection, schedule: Q01DX005 (ip), vehicle: distilled water + Tween-80) 94 % of control.

`O=C(CN1CCOCC1)Nc1nc(-c2ccc(Cl)cc2)cs1`: the T/C (dose: 50.0 mg/kg/injection, schedule: Q01DX005 (ip), vehicle: saline with Tween-80) is 110 % of control and the T/C (dose: 100.0 mg/kg/injection, schedule: Q01DX005 (ip), vehicle: saline with Tween-80) was 91 % of control.

Regarding `COc1ccc(OC)c(NC(=O)NC(c2ccccc2)c2ccccc2)c1`, the T/C (dose: 12.5 mg/kg/injection, schedule: Q01DX009 (ip), vehicle: Klucel (hydroxypropylcellulose) (HPC)) was 93 % of control.
